Assay results reported in ChEMBL document CHEMBL5604063, “ASAP - DENV-2 NS2B-NS3 protease fluorescence dose response” (2024).

What was measured:
[1] = biological target: T1, Genome polyprotein (dengue virus type 2, UniProt P29990); type: functional, Thailand/16681/1984
[2] = biological target: T1, Genome polyprotein; type: functional, Thailand/16681/1984; remark: listed apart in the source

T1 sequence (P29990 1346-1475 limits assumed): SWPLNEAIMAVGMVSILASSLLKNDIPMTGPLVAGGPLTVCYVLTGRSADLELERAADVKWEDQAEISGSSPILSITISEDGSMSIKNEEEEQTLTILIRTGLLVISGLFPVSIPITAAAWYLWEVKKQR
T1 sequence (P29990 1476-2093 limits assumed): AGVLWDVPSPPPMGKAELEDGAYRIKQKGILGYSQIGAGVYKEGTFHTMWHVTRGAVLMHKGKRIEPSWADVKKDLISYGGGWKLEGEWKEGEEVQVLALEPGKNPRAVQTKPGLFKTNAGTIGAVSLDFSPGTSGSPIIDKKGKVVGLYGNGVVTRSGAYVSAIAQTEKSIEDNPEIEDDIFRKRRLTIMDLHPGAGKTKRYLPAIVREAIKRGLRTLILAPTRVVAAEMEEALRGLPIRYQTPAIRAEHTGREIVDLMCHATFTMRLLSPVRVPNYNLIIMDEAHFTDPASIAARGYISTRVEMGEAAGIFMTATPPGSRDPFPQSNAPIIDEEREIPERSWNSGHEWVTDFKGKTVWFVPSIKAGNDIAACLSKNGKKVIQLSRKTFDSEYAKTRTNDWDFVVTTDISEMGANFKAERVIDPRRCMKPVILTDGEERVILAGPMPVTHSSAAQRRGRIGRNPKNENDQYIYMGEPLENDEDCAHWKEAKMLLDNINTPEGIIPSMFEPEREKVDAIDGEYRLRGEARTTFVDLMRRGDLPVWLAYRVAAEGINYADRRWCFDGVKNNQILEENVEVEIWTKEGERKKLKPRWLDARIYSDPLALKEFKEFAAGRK

Row | SMILES | IC50 [1] | IC50 [2]
1 | NCc1cccc(NC(=O)[C@@H](NC(=O)OCc2ccccc2)C2CCN(S(=O)(=O)C3CCCC3)CC2)c1 | > 100 µM | > 99.5 µM
2 | NCc1cccc(NC(=O)c2cc(NC(=O)OCc3ccccc3)ccc2C(F)(F)F)c1 | > 100 µM | > 99.5 µM
3 | NCc1cccc(NC(=O)c2cc(Cl)cc(-n3cccc3)c2)c1 | > 100 µM | > 99.5 µM
4 | N#Cc1csc(CN2CCC([C@H](NC(=O)OCc3ccccc3)C(=O)Nc3cccc(CN)c3)CC2)c1 | > 100 µM | > 99.5 µM
5 | NCc1cccc(NC(=O)[C@@H](NC(=O)OCc2ccccc2)C2CCN(C(=O)C3CC3)CC2)c1 | > 100 µM | > 99.5 µM
6 | NCc1cccc(NC(=O)[C@H](NC(=O)OCc2ccccc2)C2CCN(C(=O)[C@H]3C[C@H](O)C3)CC2)c1 | > 100 µM | > 99.5 µM
7 | N#CC1(S(=O)(=O)N2CCC([C@H](NC(=O)OCc3ccccc3)C(=O)Nc3cccc(CN)c3)CC2)CCC1 | > 100 µM | 81.8 µM
8 | NCc1cccc(NC(=O)c2cc(Cl)cc(N3CCCC3)c2)c1 | > 100 µM | > 99.5 µM
9 | C[C@@H]1CNC[C@H]1c1ccc(NC(=O)c2ccc3c(c2)SCCN3)cc1 | > 100 µM | > 99.5 µM
10 | O=C(Nc1cc(Cl)cc(C(=O)NCC2(CO)CCNCC2)c1)OCc1ccccc1 | > 100 µM | > 99.5 µM
11 | Cc1nnsc1CN1CCC([C@@H](NC(=O)OCc2ccccc2)C(=O)Nc2cccc(CN)c2)CC1 | > 100 µM | > 99.5 µM
12 | N#Cc1ccc(N2CCN(Cc3c[nH]c4ccccc34)CC2)cc1 | > 100 µM | > 99.5 µM
13 | NCc1cccc(NC(=O)[C@@H](NC(=O)OCc2ccccc2)C2CCN(Cc3cccnc3)CC2)c1 | > 100 µM | > 99.5 µM
14 | c1ccc(-c2[nH]c3ccccc3c2CN2CCC(c3cscn3)CC2)cc1 | > 100 µM | > 99.5 µM
15 | O=C(Nc1cc(Cl)cc(C(=O)Nc2ccc3c(c2)[C@H]2CC[C@H]3N2)c1)OCc1ccccc1 | > 100 µM | 76.4 µM
16 | NCc1cccc(NC(=O)c2cc(Cl)ccc2-n2cncn2)c1 | > 100 µM | > 99.5 µM
17 | Cn1nnc(S(=O)(=O)N2CCC([C@H](NC(=O)OCc3ccccc3)C(=O)Nc3cccc(CN)c3)CC2)n1 | > 100 µM | > 99.5 µM
18 | NCc1cccc(NC(=O)[C@H](NC(=O)OCc2ccccc2)C2CCN(S(=O)(=O)c3ccccc3)CC2)c1 | > 100 µM | > 99.5 µM
19 | NS(=O)(=O)c1ccccc1N1CCN(Cc2c[nH]c3ccccc23)CC1 | > 100 µM | > 99.5 µM

Row | SMILES | IC50 [1] | IC50 [2]
20 | NCc1cccc(NC(=O)[C@@H](NC(=O)OCc2ccccc2)c2ccc(OCc3ccccn3)cc2)c1 | > 100 µM | > 99.5 µM
21 | COCc1cc(Cl)cc(C(=O)Nc2cccc(CN)c2)c1 | > 100 µM | > 99.5 µM
22 | Cn1nc(CCN)nc1NC(=O)c1cc(Cl)cc(NC(=O)OCc2ccccc2)c1 | > 100 µM | > 99.5 µM
23 | NC[C@@H](NC(=O)c1cc(Cl)cc(NC(=O)OCc2ccccc2)c1)c1ccccc1 | > 100 µM | > 99.5 µM
24 | C[C@H](N)c1cccc(NC(=O)c2cc(Cl)cc(NC(=O)OCc3ccccc3)c2)c1 | > 100 µM | 68.6 µM
25 | c1ccc(N2CCN(Cc3c[nH]c4ccccc34)CC2)nc1 | > 100 µM | > 99.5 µM
26 | NCc1cccc(NC(=O)[C@@H](NC(=O)OCc2ccccc2)C2CCN(S(=O)(=O)Cc3cscn3)CC2)c1 | > 100 µM | > 99.5 µM
27 | NCc1cccc(NC(=O)[C@H](NC(=O)OCc2ccccc2)c2ccc(OCc3ccncn3)cc2)c1 | > 100 µM | 99.2 µM
28 | Cn1ccnc1COc1cccc([C@H](NC(=O)OCc2ccccc2)C(=O)Nc2cccc(CN)c2)c1 | > 100 µM | > 99.5 µM
29 | Cc1nnc(S(=O)(=O)N2CCC([C@H](NC(=O)OCc3ccccc3)C(=O)Nc3cccc(CN)c3)CC2)s1 | > 100 µM | > 99.5 µM
30 | NCc1cccc(NC(=O)c2cc(Cl)cc(Cl)c2O)c1 | > 100 µM | > 99.5 µM
31 | CN1CCC(COc2cccc([C@H](NC(=O)OCc3ccccc3)C(=O)Nc3cccc(CN)c3)c2)CC1 | > 100 µM | > 99.5 µM
32 | NCc1cccc(NC(=O)[C@@H](NC(=O)OCc2ccccc2)C2CCN(S(=O)(=O)[C@H]3CCOC3)CC2)c1 | > 100 µM | > 99.5 µM
33 | CC(=O)Nc1cc(Cl)cc(C(=O)Nc2cccc(CN)c2)c1 | > 100 µM | > 99.5 µM
34 | CN(C)Cc1csc(NC(=O)c2cc(Cl)cc(NC(=O)OCc3ccccc3)c2)n1 | > 100 µM | > 99.5 µM
35 | NCc1cccc(NC(=O)[C@@H](NC(=O)OCc2ccccc2)C2CCN(S(=O)(=O)Cc3ncon3)CC2)c1 | > 100 µM | > 99.5 µM
36 | NCc1cccc(NC(=O)c2nc(=O)cc(NC(=O)OCc3ccccc3)[nH]2)c1 | > 100 µM | > 99.5 µM
37 | CNCc1cccc(NC(=O)c2cc(Cl)cc(NC(=O)OCc3ccccc3)c2)c1 | > 100 µM | 80.5 µM
38 | NCc1cccc(NC(=O)[C@@H](NC(=O)OCc2ccccc2)C2CCN(C3CCOCC3)CC2)c1 | > 100 µM | > 99.5 µM

Row | SMILES | IC50 [1] | IC50 [2]
39 | NCc1cccc(NC(=O)[C@H](NC(=O)OCc2ccccc2)c2ccc(OCCc3cscn3)cc2)c1 | > 100 µM | > 99.5 µM
40 | Clc1ccc2c(CN3CCC(c4c[nH]c5ncccc45)CC3)c[nH]c2c1 | > 100 µM | > 99.5 µM
41 | COCC(=O)N1CCC([C@@H](NC(=O)OCc2ccccc2)C(=O)Nc2cccc(CN)c2)CC1 | > 100 µM | > 99.5 µM
42 | CN(C)Cc1cc(NC(=O)[C@H](NC(=O)OCc2ccccc2)c2ccc(OCc3ccccc3)cc2)sn1 | > 100 µM | > 99.5 µM
43 | NCc1ccccc1Oc1ccc(S(=O)(=O)Nc2ccc(Cl)cc2C(=O)NCC(F)(F)F)cc1 | > 100 µM | > 99.5 µM
44 | CC(C)S(=O)(=O)N1CCC([C@@H](NC(=O)OCc2ccccc2)C(=O)Nc2cccc(CN)c2)CC1 | > 100 µM | > 99.5 µM
45 | Cn1ccnc1C(=O)N1CCC([C@H](NC(=O)OCc2ccccc2)C(=O)Nc2cccc(CN)c2)CC1 | > 100 µM | > 99.5 µM
46 | CS(=O)(=O)N1CCC([C@@H](NC(=O)OCc2ccccc2)C(=O)Nc2cccc(CN)c2)CC1 | > 100 µM | > 99.5 µM
47 | O=C(Nc1cc(Cl)cc(C(=O)Nc2ccc3c(c2)CNCCO3)c1)OCc1ccccc1 | > 100 µM | > 99.5 µM
48 | NCc1cccc(NC(=O)[C@@H](NC(=O)OCc2ccccc2)c2ccc(OCCN3CCCCC3)cc2)c1 | > 100 µM | > 99.5 µM
49 | NCc1cccc(NC(=O)[C@@H](NC(=O)OCc2ccccc2)c2ccc(OCc3cnccn3)cc2)c1 | > 100 µM | > 99.5 µM
50 | CSc1cc(Cl)cc(C(=O)Nc2cccc(CN)c2)c1 | > 100 µM | > 99.5 µM
51 | NCc1cc(F)cc(NC(=O)c2cc(Cl)cc(NC(=O)OCc3ccccc3)c2)c1 | > 100 µM | > 99.5 µM
52 | NCc1cccc(NC(=O)c2cc(Cl)ccc2OCC(F)(F)F)c1 | > 100 µM | > 99.5 µM
53 | NCc1cccc(NC(=O)[C@H](NC(=O)OCc2ccccc2)c2cccc(OCCn3cccn3)c2)c1 | > 100 µM | > 99.5 µM
54 | NS(=O)(=O)c1cccc(N2CCN(Cc3c[nH]c4ccccc34)CC2)c1 | > 100 µM | > 99.5 µM
55 | Cc1csc(N2CCN(Cc3c[nH]c4ccccc34)CC2)n1 | > 100 µM | > 99.5 µM
56 | C[C@@H](N)c1cccc(NC(=O)c2cc(Cl)cc(NC(=O)OCc3ccccc3)c2)c1 | > 100 µM | 81 µM
